Experimental findings from patent US6639121B1, “Inducible cancer model to study the molecular basis of host tumor cell interactions in vivo” (Dana-Farber Cancer Institute, Inc., priority 1999, dated 2003) are described below.

In experiment [1] the test system is Tyr/Tet-RAS INK4a−/− mice. In words: Doxycycline-induced melanoma development in transgenic mice. It is filed as in vivo, mouse. Conditions: doxycycline in the drinking water from weaning. The text has this:
To develop a cancer model in which dominantly acting oncoproteins are somatically regulated in vivo, transgenic mouse lines harboring the reverse tetracycline transactivator^2 under the control of the tyrosinase gene promoter-enhancer elements (designated Tyr-rtTA) and another containing the H-RAS^V12G open reading frame driven by a minimal promoter containing multimerized tet-operons.^2,3 (designated Tet-RAS) were inter-crossed with INK4a+/− mice to generate cohorts of single and double transgenic mice (designated Tyr/Tet-RAS) homozygous null for INK4a. Upon weaning, a subset of single and double transgenic INK4a −/− mice were administered doxycycline in the drinking water^4. In the doxycycline-treated group, 10 of 40 Tyr/Tet-RAS INK4a−/− mice developed melanomas with an average latency of 60 days (FIG. 1A). […] The Tyr/Tet-RAS INK4a−/− melanomas shared all of the macroscopic features of the constitutive Tyr-RAS INK4a−/− melanomas 5, manifesting as amelanotic, invasive and highly vascular tumors—features reminiscent of nodular-type melanoma in humans (for example, see FIGS. 2A&B).
Production of the transgenic mice. The reverse tetracycline transactivator (rtTA) is a 1050 bp EcoRI/BamHI fragment isolated from pUHD172-1neo^2. The Tet promoter contains a XhoI/EcoRI fragment of CMV minimal promoter linked to the tet operator sequences^2. […]

The subject of experiment [2] is Tyr/Tet-RAS INK4a−/− melanoma cell lines. Briefly: SCID explant tumorigenicity of melanoma cell lines. It counts as in vivo, mouse. The following applies: SCID mice treated with doxycycline. From the text:
To this end, we first assessed the impact of doxycycline withdrawal in different Tyr/Tet-RAS INK4a−/− tumor derived cell lines in cell culture. […] The derivative melanoma cell lines remained doxycycline-responsive as shown by their strict doxycycline-dependency for tumorigenic potential in SCID mice. Specifically, subcutaneous injection of purified Tyr/Tet-RAS INK4a−/− melanoma cell lines yielded tumors in SCID mice treated with doxycycline with 100% efficiency, while those mice not receiving doxycycline remained tumor-free after many months of observation (FIG. 3A). […] On the other hand, the data is also consistent with the possibility that tumor regression following doxycycline withdrawal may reflect a continued requirement for RAS in promoting and sustaining non-cell-autonomous tumor-host interactions that are essential for tumor growth and maintenance.
Primary tumors, derivative cell lines and SCID explant tumors. Transgenic mice were fed doxycycline drinking water (2 mg/ml sucrose water) and observed for spontaneous tumor development. Primary tumors were adapted to culture by mechanical mincing with sterilized razor blades and brief trypsinization and maintained on RPMI media containing 10% serum and supplemented with doxycycline (2 μg/ml media)^4. […]

As for `C[C@H]1c2cccc(O)c2C(=O)C2=C(O)[C@]3(O)C(=O)C(C(N)=O)=C(O)[C@@H](N(C)C)[C@@H]3[C@@H](O)[C@@H]21` [doxycycline], the “average latency of melanoma development” value in experiment [1] came out at 60 days. The “efficiency of tumor formation after subcutaneous injection” value in experiment [2] was determined as 100%.
